Read-outs that look alike come from different tables or passages of the source.
Legend:
FAK kinase = FAK kinase (Homo sapiens, UniProt Q05397); assay: FAK ADP-Glo kinase assay (selectivity); format: biochemical; conditions: for IC50: ADP-Glo assay, read-out: IC50 against FAK; for selectivity for PLK1 over FAK: FAK IC50 versus PLK1 IC50
Procedure: (§1) In vitro kinase activity assays were conducted through ADP-Glo assay services provided by Conradbio (Conradbio, China). The protocol for the PLK1 assay is described as follows (protocols for other kinases are very similar). Enzyme, substrate, ATP, and compounds were diluted in a Kinase Buffer composed of 40 mM Tris (pH 7.5), 20 mM MgCl2, 0.1 mg/ml BSA, and 50 μM DTT. In a 384-well low-volume plate, 1 μl of the compound or 5% dimethyl sulfoxide (DMSO), 2 μl of PLK1 enzyme (15 ng/well), and 2 μl of substrate/ATP mix (final concentration: 20 μM ATP, 0.2 μg/μl Casein) were added to each well. The plate was then incubated at 25 °C for 60 min to allow for kinase activity. Following the enzymatic reaction, 5 μl of ADP-Glo^TM Reagent was added to each well, and the plate was incubated at 25 °C for an additional 40 min. Subsequently, 10 μl of Kinase Detection Reagent was added, and the plate was incubated for a final 30 min at 25 °C. Luminescence was recorded with an integration time of 0.5 s.
(§2) IC50 values were calculated using Prism 8 by fitting the following equation:4 Y=Bottom+(Top−Bottom)/(1+10^(logIC50−X)×HillSlope), where X is a log of concentration, Y is a response, and top and bottom are the responses of controls. Each assay was repeated at least three times, and we computed the mean and standard deviation for the values.

HCT116 cell line = assay: CellTiter-Glo cell viability assay on HCT116; format: cell-based, human
Procedure: Cell viability assays were conducted through CellTiter-Glo assay services provided by Conradbio (Conradbio, China). The protocol is briefly described as follows. Firstly, when the cell confluence reaches 80%, cells are collected and counted. Subsequently, a cell suspension is diluted, and 80 μl of the suspension is seeded into each well of a 96-well U-bottom plate. The plate is then placed in a 37 °C, 5% CO2 incubator for optimal cell growth. After 24 h of incubation, a 20 μl aliquot of a diluted compound solution is added to specific wells on the plate, 0.5% dimethyl sulfoxide (DMSO) is used as a negative control. Following the compound addition, the plate is returned to the incubator for an additional day. Upon completion of the incubation period, the CellTiter-Glo assay (Promega) is performed according to the manufacturer’s manual. This assay is designed to measure cell viability based on luminescence, providing insights into the impact of the compounds on cellular health. Finally, data calculation is carried out to analyze the results of the CTG assay using Prism 8.

PLK3 [1] = target: T1, PLK3 (Homo sapiens, UniProt Q9H4B4); assay: PLK3 ADP-Glo kinase assay (selectivity); format: biochemical; conditions: read-out: IC50 against PLK3
T1 sequence (Q9H4B4 whole entry): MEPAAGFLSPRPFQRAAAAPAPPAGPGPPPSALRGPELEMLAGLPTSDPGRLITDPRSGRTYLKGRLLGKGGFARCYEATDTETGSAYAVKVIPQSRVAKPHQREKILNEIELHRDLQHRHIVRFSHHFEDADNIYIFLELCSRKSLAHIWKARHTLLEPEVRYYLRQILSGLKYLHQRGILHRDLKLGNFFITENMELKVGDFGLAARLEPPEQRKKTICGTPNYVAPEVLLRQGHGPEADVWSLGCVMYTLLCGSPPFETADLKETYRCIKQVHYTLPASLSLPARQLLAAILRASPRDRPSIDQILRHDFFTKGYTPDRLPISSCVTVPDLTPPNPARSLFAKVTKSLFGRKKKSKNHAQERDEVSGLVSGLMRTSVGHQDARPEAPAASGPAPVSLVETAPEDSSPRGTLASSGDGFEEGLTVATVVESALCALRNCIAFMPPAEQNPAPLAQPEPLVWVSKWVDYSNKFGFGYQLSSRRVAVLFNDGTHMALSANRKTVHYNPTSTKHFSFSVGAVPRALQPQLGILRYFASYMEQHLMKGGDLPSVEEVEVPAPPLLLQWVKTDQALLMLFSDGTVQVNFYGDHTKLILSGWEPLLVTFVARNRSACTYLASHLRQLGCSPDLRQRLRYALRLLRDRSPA
Procedure: as §1, §2

[2] = Preliminary in vivo pharmacokinetic experiments in mice
PLK2 [3] = target: T2, PLK2 (Homo sapiens, UniProt Q9NYY3); assay: PLK2 ADP-Glo kinase assay (selectivity); format: biochemical; conditions: read-out: IC50 against PLK2
T2 sequence (Q9NYY3 whole entry): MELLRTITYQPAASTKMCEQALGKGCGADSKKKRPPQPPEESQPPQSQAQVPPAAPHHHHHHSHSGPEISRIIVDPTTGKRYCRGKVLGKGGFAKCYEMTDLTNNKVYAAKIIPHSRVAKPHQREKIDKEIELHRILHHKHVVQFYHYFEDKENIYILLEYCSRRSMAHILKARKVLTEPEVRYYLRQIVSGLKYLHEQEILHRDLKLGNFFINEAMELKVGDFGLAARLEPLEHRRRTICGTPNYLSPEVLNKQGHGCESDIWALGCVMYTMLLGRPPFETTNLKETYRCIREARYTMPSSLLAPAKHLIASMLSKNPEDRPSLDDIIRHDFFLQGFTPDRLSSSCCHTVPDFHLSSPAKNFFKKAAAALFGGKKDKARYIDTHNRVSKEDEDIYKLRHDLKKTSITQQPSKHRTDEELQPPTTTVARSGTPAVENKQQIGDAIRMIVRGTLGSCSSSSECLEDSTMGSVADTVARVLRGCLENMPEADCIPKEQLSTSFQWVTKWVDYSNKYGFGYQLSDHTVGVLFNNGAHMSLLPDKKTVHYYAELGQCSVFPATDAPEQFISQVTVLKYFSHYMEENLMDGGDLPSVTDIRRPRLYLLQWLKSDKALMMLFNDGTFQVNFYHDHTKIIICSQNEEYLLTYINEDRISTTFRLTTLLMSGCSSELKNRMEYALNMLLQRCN
Procedure: as §1, §2

PLK1 [4] = target: T3, PLK1 (Homo sapiens, UniProt P53350); assay: PLK1 kinase ADP-Glo assay (in vitro kinase activity); format: biochemical; parameters: 2 μl of PLK1 enzyme (15 ng/well); conditions: for selectivity for PLK1 compared to other Plks (in words): PLK1 vs PLK2/PLK3
T3 sequence (P53350 whole entry): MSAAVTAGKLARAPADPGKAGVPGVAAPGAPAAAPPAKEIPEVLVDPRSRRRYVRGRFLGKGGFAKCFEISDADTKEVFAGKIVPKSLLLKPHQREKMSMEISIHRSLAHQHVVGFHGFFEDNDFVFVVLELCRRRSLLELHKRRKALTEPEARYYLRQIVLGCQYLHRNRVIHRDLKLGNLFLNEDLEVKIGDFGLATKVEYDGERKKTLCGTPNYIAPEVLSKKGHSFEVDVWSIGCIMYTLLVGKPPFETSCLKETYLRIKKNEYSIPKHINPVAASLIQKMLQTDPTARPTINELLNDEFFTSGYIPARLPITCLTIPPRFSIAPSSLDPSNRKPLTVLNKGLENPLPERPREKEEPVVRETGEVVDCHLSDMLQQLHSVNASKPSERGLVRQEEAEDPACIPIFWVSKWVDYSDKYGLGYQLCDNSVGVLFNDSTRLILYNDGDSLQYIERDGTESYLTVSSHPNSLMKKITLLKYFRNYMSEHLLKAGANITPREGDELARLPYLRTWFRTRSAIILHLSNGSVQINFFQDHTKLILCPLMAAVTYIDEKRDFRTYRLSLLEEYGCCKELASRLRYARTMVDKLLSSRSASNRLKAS
Procedure: as §1, §2

PLK1 [5] = target: T3, PLK1; parameters: method as in ExCAPE-DB [85]; conditions: known PLK1 ligands carrying the core substructures; ref ExCAPE-DB [85]; cited from earlier work
PLK3 [6] = target: T1, PLK3; assay: Activity against PLK3 (peer review response); format: biochemical; conditions: source not stated
PLK1 [7] = target: T3, PLK1; assay: In-house enzymatic activity (peer review response); format: biochemical; conditions: Onvansertib vs. Volasertib
PLK2 [8] = target: T2, PLK2; assay: Activity against PLK2 (peer review response); format: biochemical
[9] = ADP-Glo assay, mean ± standard deviation, n = 3 replicates, read-out: IC50 against PLK1
[10] = ADP-Glo assay, read-out: IC50 against PLK1 (bound stated in text)
[11] = IC50 with 90% confidence interval, read-out: 90% CI of IC50 against PLK1
[12] = IC50 with 95% confidence interval, read-out: 95% CI of IC50 against PLK1
[13] = IC50 with 99% confidence interval, read-out: 99% CI of IC50 against PLK1

Chain of FAK kinase (Q05397 whole entry): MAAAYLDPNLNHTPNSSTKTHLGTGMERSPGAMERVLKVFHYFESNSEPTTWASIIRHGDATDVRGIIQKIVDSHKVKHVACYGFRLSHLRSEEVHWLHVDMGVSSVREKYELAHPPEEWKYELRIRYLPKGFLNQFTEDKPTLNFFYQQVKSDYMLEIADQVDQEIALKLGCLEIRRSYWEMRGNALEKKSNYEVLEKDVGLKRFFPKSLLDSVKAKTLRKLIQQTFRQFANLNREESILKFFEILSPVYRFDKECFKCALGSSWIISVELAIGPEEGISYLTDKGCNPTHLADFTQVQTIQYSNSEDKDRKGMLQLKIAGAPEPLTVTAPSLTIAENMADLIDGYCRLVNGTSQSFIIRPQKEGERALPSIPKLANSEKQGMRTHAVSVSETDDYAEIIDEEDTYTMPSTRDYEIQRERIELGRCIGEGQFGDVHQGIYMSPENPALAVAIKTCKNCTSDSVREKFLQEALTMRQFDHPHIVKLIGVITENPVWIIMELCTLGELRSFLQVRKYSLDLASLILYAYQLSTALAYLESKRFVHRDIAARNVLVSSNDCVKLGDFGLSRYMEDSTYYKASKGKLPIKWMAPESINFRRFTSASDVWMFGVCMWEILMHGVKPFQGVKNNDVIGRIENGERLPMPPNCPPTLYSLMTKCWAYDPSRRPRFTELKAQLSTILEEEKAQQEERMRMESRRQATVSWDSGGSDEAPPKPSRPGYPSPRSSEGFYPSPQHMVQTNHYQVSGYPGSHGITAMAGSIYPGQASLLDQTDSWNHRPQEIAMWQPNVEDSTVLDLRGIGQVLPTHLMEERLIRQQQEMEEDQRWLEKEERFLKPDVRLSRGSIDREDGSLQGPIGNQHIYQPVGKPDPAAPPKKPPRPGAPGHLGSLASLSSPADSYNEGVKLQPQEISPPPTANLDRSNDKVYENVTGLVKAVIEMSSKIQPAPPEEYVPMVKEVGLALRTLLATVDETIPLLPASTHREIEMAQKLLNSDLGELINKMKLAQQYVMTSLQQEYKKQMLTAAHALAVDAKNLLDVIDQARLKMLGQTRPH

With `COc1ccc(N2CCN(C)CC2)cc1Nc1ncc(C)c(Oc2cccc3cc(C(N)=O)sc23)n1` [IIP0943] the IC50 (FAK kinase) was 264 nM, the “selectivity for PLK1 over FAK” value (FAK kinase) was “over 50 fold” and the “inhibitory activity in HCT116 cell proliferation (in words)” value (HCT116 cell line; HCT116 cell line) was “submicromolar”. The IC50 (HCT116 cell line; Homo sapiens, HCT-116, CellTiter-Glo, mean ± standard deviation, n = 3 replicates, read-out: IC50 of cell proliferation inhibition, HCT116) was 220 ± 3 nM, the IC50 (PLK3 [1]) was > 1000 nM and the “half-life compared to Onvansertib (in words)” value [2] was “prolonged half-life”. For the same compound, the “oral bioavailability compared to Onvansertib” value ([2]; ratio to Onvansertib) was “over two-fold”, the IC50 (PLK2 [3]) was > 1000 nM and the IC50 (PLK1 [4]; [9]) was 5.1 nM. The IC50 (PLK1 [4]; [10]) was < 1000 nM, the IC50 (PLK1 [4]; [11]) was 5.06 ± 1.64 nM and the IC50 (PLK1 [4]; [12]) was 5.06 ± 1.96 nM. For the same compound, the IC50 (PLK1 [4]; [13]) was 5.06 ± 2.57 nM and the “selectivity for PLK1 compared to other Plks (in words)” value (PLK1 [4]) was “high and excellent”.
In the case of `CCS(=O)(=O)c1ccc2oc(Nc3ccc(C(C)C)cc3)nc2c1` [PubChem CID 2462953], the pXC50 (PLK1 [5]) is given as 5.6.
In the case of `COc1ccc(N2CCN(C)CC2)cc1Nc1ncc(C(F)(F)F)c(Oc2cccc3[nH]c(C(N)=O)cc23)n1` [IIP0942], the IC50 (FAK kinase) is reported as 87.4 nM, the “selectivity for PLK1 over FAK” value (FAK kinase) is reported as “over two-fold” and the IC50 (PLK3 [1]) is reported as > 1000 nM. For the same compound, the IC50 (PLK2 [3]) was > 1000 nM, the IC50 (PLK1 [4]; [9]) was 37.6 nM and the IC50 (PLK1 [4]; [10]) was < 1000 nM. For the same compound, the IC50 (PLK1 [4]; [11]) was 37.6 ± 3.55 nM, the IC50 (PLK1 [4]; [12]) was 37.6 ± 4.23 nM and the IC50 (PLK1 [4]; [13]) was 37.6 ± 5.56 nM. For the same compound, the “selectivity for PLK1 compared to other Plks (in words)” value (PLK1 [4]) was “excellent”.
For `Cc1cc(Oc2ccc(C#N)cc2)nc(NCc2ccccc2)n1` [PubChem CID 1927680], the pXC50 (PLK1 [5]) is listed as 5.6.
For `COc1ccc(N2CCN(C)CC2)cc1Nc1ncc(C)c(Oc2ccccc2-n2ccnn2)n1` [IIP0945], the IC50 (PLK1 [4]; [9]) was 927 ± 129 nM, the IC50 (PLK1 [4]; [10]) was < 1000 nM and the IC50 (PLK1 [4]; [11]) was 928 ± 122 nM. The IC50 (PLK1 [4]; [12]) was 928 ± 146 nM and the IC50 (PLK1 [4]; [13]) was 928 ± 192 nM.
For `CC[C@@H]1C(=O)N(C)c2cnc(Nc3ccc(C(=O)N[C@H]4CC[C@H](N5CCN(CC6CC6)CC5)CC4)cc3OC)nc2N1C(C)C` [Volasertib], the “activity against PLK3 (in words)” value (PLK3 [6]) was “low nanomolar”, the “enzymatic activity, in-house experiments” value (PLK1 [7]) was 0.30 nM and the “selectivity compared to Onvansertib (in words)” value (PLK2 [8]; PLK1 vs PLK2 and PLK3) was “much worse selectivity”. The “activity against PLK2 (in words)” value (PLK2 [8]; source not stated) was “low nanomolar”.
With `COc1ccc(N2CCN(C)CC2)cc1Nc1ncc2ccn(-c3ccccc3-c3nc(C)no3)c2n1` [IIP0944] the IC50 (PLK1 [4]; [9]) was > 10000 nM.
For `COc1cc2c(cc1Nc1nc(Nc3ccsc3C(N)=O)c3cc[nH]c3n1)N(C(=O)CN(C)C)CCC2` [GSK-2110236A], the pXC50 (PLK1 [5]) is given as 7.6.
